This note sets out measurements from US20120088759A1, “THIAZOLIDIN-4-ONE AND [1,3]-THIAZINAN-4-ONE COMPOUNDS AS OREXIN RECEPTOR ANTAGONISTS” (priority 2009, published 2012).

One assay has as its target T1, human orexin-1 receptor (Homo sapiens, UniProt O43613).
T1 construct: expressed in transfected cells; host or cells: CHO (Chinese hamster ovary) cells, kept under G418
T1 sequence (O43613 1-425): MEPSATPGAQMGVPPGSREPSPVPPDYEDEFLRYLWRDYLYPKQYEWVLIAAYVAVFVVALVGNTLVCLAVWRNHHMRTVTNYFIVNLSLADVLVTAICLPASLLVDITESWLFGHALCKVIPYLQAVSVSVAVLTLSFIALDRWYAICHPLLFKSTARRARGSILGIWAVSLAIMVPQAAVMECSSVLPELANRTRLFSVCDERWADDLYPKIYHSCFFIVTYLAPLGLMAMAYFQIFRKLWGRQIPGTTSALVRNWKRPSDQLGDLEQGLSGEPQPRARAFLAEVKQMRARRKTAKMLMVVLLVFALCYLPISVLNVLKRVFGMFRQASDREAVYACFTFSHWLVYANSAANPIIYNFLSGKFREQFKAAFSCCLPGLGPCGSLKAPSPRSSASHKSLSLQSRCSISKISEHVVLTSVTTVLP
As to the kind of experiment: FLIPR intracellular calcium assay, orexin receptor antagonistic activity (OX1). It counts as cell-based. The following applies: CHO cells expressing human orexin-1 receptor; 3 nM orexin-A; normalized to on-plate reference; *n = geometric mean from n values. The method, then: (§1) The orexin receptor antagonistic activity of the compounds of formula (I) is determined in accordance with the following experimental method.
(§2) Chinese hamster ovary (CHO) cells expressing the human orexin-1 receptor and the human orexin-2 receptor, respectively, are grown in culture medium (Ham F-12 with L-Glutamine) containing 300 μg/ml G418, 100 U/ml penicillin, 100 μg/ml streptomycin and 10% heat inactivated fetal calf serum (FCS). The cells are seeded at 20′000 cells/well into 384-well black clear bottom sterile plates (Greiner). The seeded plates are incubated overnight at 37° C. in 5% CO2.
(§3) Human orexin-A as an agonist is prepared as 1 mM stock solution in MeOH:water (1:1), diluted in HBSS containing 0.1% bovine serum albumin (BSA), NaHCO3: 0.375 g/l and 20 mM HEPES for use in the assay at a final concentration of 3 nM.
(§4) Antagonists are prepared as 10 mM stock solution in DMSO, then diluted in 384-well plates using DMSO followed by a transfer of the dilutions into in HBSS containing 0.1% bovine serum albumin (BSA), NaHCO3: 0.375 g/l and 20 mM HEPES. On the day of the assay, 50 μl of staining buffer (HBSS containing 1% FCS, 20 mM HEPES, NaHCO3: 0.375 g/l, 5 mM probenecid (Sigma) and 3 μM of the fluorescent calcium indicator fluo-4 AM (1 mM stock solution in DMSO, containing 10% pluronic) is added to each well. The 384-well cell-plates are incubated for 50 min at 37° C. in 5% CO2 followed by equilibration at rt for 30-120 min before measurement.
(§5) Within the Fluorescent Imaging Plate Reader (FLIPR Tetra, Molecular Devices), antagonists are added to the plate in a volume of 10 μl/well, incubated for 10 min and finally 10 μl/well of agonist is added. Fluorescence is measured for each well at 1 second intervals, and the height of each fluorescence peak is compared to the height of the fluorescence peak induced by 3 nM orexin-A with vehicle in place of antagonist. For each antagonist, the IC50 value (the concentration of compound needed to inhibit 50% of the agonistic response) is determined and normalized using the obtained IC50 value of a on-plate reference compound. Optimized conditions were achieved by adjustment of pipetting speed and cell splitting regime. The calculated IC50 values of the compounds may fluctuate depending on the daily cellular assay performance. Fluctuations of this kind are known to those skilled in the art.
On the technique in general: Calcium flux is commonly read through the fluorescence of an indicator in the cells.

The target in another assay is T2, human orexin-2 receptor (Homo sapiens, UniProt O43614).
T2 construct: expressed in transfected cells; host or cells: CHO (Chinese hamster ovary) cells, kept under G418
T2 sequence (O43614 1-444): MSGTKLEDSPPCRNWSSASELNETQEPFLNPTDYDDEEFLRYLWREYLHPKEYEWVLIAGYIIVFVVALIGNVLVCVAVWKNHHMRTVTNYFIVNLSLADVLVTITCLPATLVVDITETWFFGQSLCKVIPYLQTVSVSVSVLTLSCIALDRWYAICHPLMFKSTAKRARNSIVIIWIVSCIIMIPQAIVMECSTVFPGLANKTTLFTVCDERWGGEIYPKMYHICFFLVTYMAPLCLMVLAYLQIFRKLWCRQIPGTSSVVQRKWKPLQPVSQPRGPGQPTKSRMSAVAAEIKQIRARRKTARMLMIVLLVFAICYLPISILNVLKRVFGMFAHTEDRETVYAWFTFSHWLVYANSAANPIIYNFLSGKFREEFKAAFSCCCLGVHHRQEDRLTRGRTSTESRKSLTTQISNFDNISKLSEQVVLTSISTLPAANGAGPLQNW
Nature of the assay: FLIPR intracellular calcium assay, orexin receptor antagonistic activity (OX2). It counts as cell-based. The following applies: CHO cells expressing human orexin-2 receptor; 3 nM orexin-A; normalized to on-plate reference; *n = geometric mean from n values. The method, then:
as §1, §2, §3, §4, §5

What is called IC50 is the concentration that inhibits the measured activity by half. Take “2-[2-(2-Hydroxy-ethoxy)-6-methoxy-phenyl]-3-(4-isopropoxy-benzyl)-thiazolidin-4-on [Example 269]”: the IC50 was determined as 2060 nM at human orexin-1 receptor and 25 nM at human orexin-2 receptor.
In the same order, the values of “2-[2-(2-Hydroxy-ethoxy)-6-methoxy-phenyl]-3-(4-trifluoromethoxy-benzyl)-thiazolidin-4-one [Example 268]” are 1840 nM and 45 nM.
For `COc1ccc(CN2C(=O)CSC2c2c(OC)cccc2OC)cc1` (stereo not drawn) [Example 1, 2-(2,6-Dimethoxy-phenyl)-3-(4-methoxy-benzyl)-thiazolidin-4-one], in that order: 309 nM and 104 nM.
For `COc1cccc(OC)c1C1SCC(=O)N1Cc1ccc(OC(F)(F)F)cc1` (stereo not drawn) [Example 2, 2-(2,6-Dimethoxy-phenyl)-3-(4-trifluoromethoxy-benzyl)-thiazolidin-4-one], in that order: 144 nM and 15 nM.
`COc1cccc(OC)c1C1SCC(=O)N1Cc1ccc(OC(C)(C)C)cc1` (stereo not drawn) [Example 3, 3-(4-tert-Butoxy-benzyl)-2-(2,6-dimethoxy-phenyl)-thiazolidin-4-one]: the IC50 on human orexin-1 receptor turned out to be 1420 nM; at human orexin-2 receptor, 120 nM.
For `COc1cccc(OC)c1C1SCC(=O)N1Cc1ccc(OC(F)F)cc1` (stereo not drawn) [Example 4, 3-(4-Difluoromethoxy-benzyl)-2-(2,6-dimethoxy-phenyl)-thiazolidin-4-one], in that order: 377 nM and 27 nM.
For `COc1cccc(OC)c1C1SCC(=O)N1Cc1ccc(OC(C)C)cc1` (stereo not drawn) [Example 5, 2-(2,6-Dimethoxy-phenyl)-3-(4-isopropoxy-benzyl)-thiazolidin-4-one], in that order: 169 nM and 16 nM.
For `CCOc1ccc(CN2C(=O)CSC2c2c(OC)cccc2OC)cc1` (stereo not drawn) [Example 6, 2-(2,6-Dimethoxy-phenyl)-3-(4-ethoxy-benzyl)-thiazolidin-4-one], the IC50 worked out at 140 nM at human orexin-1 receptor and 24 nM at human orexin-2 receptor.
As for `COc1cccc(OC)c1C1SCC(=O)N1Cc1ccc(Oc2ccccc2)cc1` (stereo not drawn) [Example 7, 2-(2,6-Dimethoxy-phenyl)-3-(4-phenoxy-benzyl)-thiazolidin-4-one], the half-maximal inhibitory concentration (IC50) at human orexin-1 receptor was 244 nM; at human orexin-2 receptor it was 13 nM.
In the same order, the values of `COc1cccc(OC)c1C1SCC(=O)N1Cc1ccc2ccccc2c1` (stereo not drawn) [Example 8, 2-(2,6-Dimethoxy-phenyl)-3-naphthalen-2-ylmethyl-thiazolidin-4-one] are 83 nM and 23 nM.
`CCOc1ccc(CN2C(=O)CSC2c2c(OC)ccc3c2OCCO3)cc1` (stereo not drawn) [Example 9, 3-(4-Ethoxy-benzyl)-2-(6-methoxy-2,3-dihydro-benzo[1,4]dioxin-5-yl)-thiazolidin-4-one]: the IC50 was found to be 326 nM on human orexin-1 receptor and 39 nM at human orexin-2 receptor.
Regarding `COc1ccc2c(c1C1SCC(=O)N1Cc1ccc(OC(F)(F)F)cc1)OCCO2` (stereo not drawn) [Example 10, 2-(6-Methoxy-2,3-dihydro-benzo[1,4]dioxin-5-yl)-3-(4-trifluoromethoxy-benzyl)-thiazolidin-4-one], the IC50 at human orexin-1 receptor stood at 144 nM; on human orexin-2 receptor, 16 nM.
As for `CCOc1ccc(CN2C(=O)CSC2c2c(OC)ccc3c2OCO3)cc1` (stereo not drawn) [Example 11, 3-(4-Ethoxy-benzyl)-2-(5-methoxy-benzo[1,3]dioxol-4-yl)-thiazolidin-4-one], the concentration for half-maximal inhibition (IC50) on human orexin-1 receptor stood at 885 nM; on human orexin-2 receptor, 46 nM.
As to `COc1ccc2c(c1C1SCC(=O)N1Cc1ccc(OC(F)(F)F)cc1)OCO2` (stereo not drawn) [Example 12, 2-(5-Methoxy-benzo[1,3]dioxol-4-yl)-3-(4-trifluoromethoxy-benzyl)-thiazolidin-4-one], the IC50 turned out to be 310 nM at human orexin-1 receptor and 11 nM on human orexin-2 receptor.
In the same order, the values of `CCOc1ccc(CN2C(=O)C(C)SC2c2c(OC)cccc2OC)cc1` (stereo not drawn) [Example 13, 2-(2,6-Dimethoxy-phenyl)-3-(4-ethoxy-benzyl)-5-methyl-thiazolidin-4-one] are 244 nM and 43 nM.
